Data reported in article PMC3759421, “Blocking Plasmodium falciparum Development via Dual Inhibition of Hemoglobin Degradation and the Ubiquitin Proteasome System by MG132” (PLoS ONE, 2013).
Peptide text beside a SMILES is read from it. * marks the point of attachment. Cbz = O=C(OCc1ccccc1)*

Key:
falcipain-2 (FP2) [1] = target: T1, falcipain-2 (FP2) (Plasmodium falciparum, UniProt Q8I6U4); experiment: biochemical; conditions: read-out: FP2
T1 construct: gene FP2A; carboxy-terminus region of the prodomain (36 amino acid residues) and the entire mature protease domain
T1 sequence (Q8I6U4 208-484): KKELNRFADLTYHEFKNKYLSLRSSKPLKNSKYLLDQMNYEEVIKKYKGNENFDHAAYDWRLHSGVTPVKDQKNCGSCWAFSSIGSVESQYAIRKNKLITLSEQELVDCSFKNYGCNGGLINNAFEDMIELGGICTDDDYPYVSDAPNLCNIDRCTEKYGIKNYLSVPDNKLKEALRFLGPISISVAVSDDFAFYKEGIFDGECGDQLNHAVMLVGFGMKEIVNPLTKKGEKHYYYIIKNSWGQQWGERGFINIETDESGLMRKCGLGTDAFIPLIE
Procedure: recombinant enzyme inhibition, Z-LR-AMC hydrolysis progress curves (association rate constant); active site titration on falcipain-2 (FP2) | Concentrations of active FP2 and FP3 were determined by active site titration using E64

falcipain-3 (FP3) [2] = target: T2, falcipain-3 (FP3) (Plasmodium falciparum, UniProt Q8IIL0); experiment: recombinant enzyme inhibition, Z-LR-AMC hydrolysis progress curves (association rate constant); active site titration; assay type: biochemical; conditions: read-out: FP3
T2 construct: carboxy-terminus region of the prodomain (35 amino acid residues) and the entire mature protease domain
T2 sequence (Q8IIL0 208-492): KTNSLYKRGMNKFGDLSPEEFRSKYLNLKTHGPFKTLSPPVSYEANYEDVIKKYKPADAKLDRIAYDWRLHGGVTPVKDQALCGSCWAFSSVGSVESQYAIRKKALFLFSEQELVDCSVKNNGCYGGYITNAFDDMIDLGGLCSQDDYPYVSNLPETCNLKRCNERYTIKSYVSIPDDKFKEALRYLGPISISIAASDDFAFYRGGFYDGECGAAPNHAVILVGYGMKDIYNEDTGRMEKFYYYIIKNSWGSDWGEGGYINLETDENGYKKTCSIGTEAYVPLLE
Source text: recombinant enzyme inhibition, Z-LR-AMC hydrolysis progress curves (association rate constant); active site titration on falcipain-3 (FP3) | MG132 and E64 inhibited hydrolysis of Z-LR-AMC by both enzymes (Figure 4B)

falcipain-2 (FP2) [3] = target: T1, falcipain-2 (FP2); experiment: recombinant enzyme inhibition, Z-LR-AMC hydrolysis progress curves (association rate constant); assay type: biochemical; conditions: read-out: FP2
falcipain-3 (FP3) [4] = target: T2, falcipain-3 (FP3); experiment: as above; assay type: biochemical; conditions: read-out: FP3
Source text: recombinant enzyme inhibition, Z-LR-AMC hydrolysis progress curves (association rate constant) on falcipain-3 (FP3) | MG132 and E64 inhibited hydrolysis of Z-LR-AMC by both enzymes (Figure 4B), confirming that MG132 is a falcipain inhibitor

SMILES | kon (falcipain-2 (FP2) [1]) | kon (falcipain-3 (FP3) [2]) | kon (falcipain-2 (FP2) [3]) | kon (falcipain-3 (FP3) [4])
CC(C)C[C@H](NC(=O)[C@H]1O[C@@H]1C(=O)O)C(=O)NCCCCN=C(N)N [E64, L-trans-epoxysuccinyl-leucyl-amido(4-guanidino)butane] | 10300 M⁻¹ s⁻¹ | 4090 M⁻¹ s⁻¹ | – | –
CC(C)C[C@@H](C=O)NC(=O)[C@H](CC(C)C)NC(=O)[C@H](CC(C)C)NC(=O)OCc1ccccc1 [MG132] (Cbz-Leu-Leu-Leu-aldehyde) | – | – | 189000 M⁻¹ s⁻¹ | 412000 M⁻¹ s⁻¹
